Each molecule was assayed against p38 MAP-kinase (Homo sapiens, UniProt Q16539) (assay: Enzymatic assay: inhibition of p38 MAP-kinase (phosphorylation of GST-tagged ATF2, chemoluminescence bead readout)). Details: inhibitor 1 μM; activated p38 MAP-kinase 1 nM; 4 h preincubation; ATP 100 μM; ATF2 10 nM; read-out: % inhibitory effect at 1 μM.
Type: biochemical
Experimental: In this, the amount of a substrate phosphorylated by the kinase is quantified. The test is carried out as follows:
The kinase reaction is carried out in the presence of HEPES (20 mM, pH 7), MgCl2 (10 mM), DTT (1 mM) and TWEEN20 (0.01%). First, dimethylsulphoxide or inhibitor (final concentration: 1 μM) dissolved in dimethylsulphoxide are placed in a reaction vessel. Then the activated p38 MAP-kinase (final concentration 1 nM) is added and the mixture is incubated for 4 h at ambient temperature. Then a mixture of substrate (GST-tagged ATF2) and ATP is added and everything is incubated together for a further hour (final concentration ATP: 100 μM; final concentration ATF2: 10 nM).
The concentration of phosphorylated ATF2 is quantified by chemoluminescence-induced light emission. For this, a glutathione donor bead (final concentration: 5 μg/ml) which binds to the gluthathione on the ATF2 and phospho-ATF2 antibodies are added to the reaction mixture (final concentration: 3 nM; this binds the phosphate group added by the kinase reaction) to which a Protein A Acceptor Bead (final concentration: 5 μg/ml) binds. These components are dissolved in a buffer which contains 20 mM HEPES pH 7.0, 200 mM NaCL, 80 mM EDTA as well as 0.3% BSA. This reaction mixture is incubated in the dark for 1 hour at ambient temperature. When these beads come physically close, visible light is emitted which is measured in a photometer at 520-620 nm.
To determine the inhibitory activity of the compounds according to the invention a calculation is made to determine the percentage by which the kinase activity is inhibited at a fixed inhibitor concentration of 1 μM. The maximum activity is determined by non-inhibited kinase. The minimum activity or nonspecific background activity is determined using a reaction mixture without kinase. […] Table 2 summarises the degree of inhibition of the enzyme p38 MAP-kinase—as described hereinbefore—of the compounds according to the invention detailed in the section “Preparation of the final compounds”.

p38 MAP-kinase, sequence (Q16539 whole entry): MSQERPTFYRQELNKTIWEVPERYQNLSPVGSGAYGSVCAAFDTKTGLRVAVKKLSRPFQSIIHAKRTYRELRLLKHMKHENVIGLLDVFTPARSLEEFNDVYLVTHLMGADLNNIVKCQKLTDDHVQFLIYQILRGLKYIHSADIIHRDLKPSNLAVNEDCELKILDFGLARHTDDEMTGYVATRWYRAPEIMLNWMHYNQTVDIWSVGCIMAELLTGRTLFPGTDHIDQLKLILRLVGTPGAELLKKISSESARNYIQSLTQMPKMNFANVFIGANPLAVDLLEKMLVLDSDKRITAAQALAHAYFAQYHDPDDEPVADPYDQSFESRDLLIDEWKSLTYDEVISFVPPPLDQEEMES

SMILES	inhibition at 1 µM [%]
CNc1cc(Oc2cc(C(=O)Nc3cc(C(C)(C)C)cc(NS(C)(=O)=O)c3OC)ccc2C)ncn1 [3(1), N-(5-tert-butyl-3-methanesulphonylamino-2-methoxy-phenyl)-4-methyl-3-(6-methylamino-pyrimidin-4-yloxy)-benzamide]	97
COc1c(NC(=O)c2ccc(Cl)c(Oc3ccnc(NC4CCN(C)CC4)n3)c2)cc(C(C)(C)C)cc1NS(C)(=O)=O [4(15), N-(5-tert-butyl-3-methanesulphonylamino-2-methoxy-phenyl)-4-chloro-3-[2-(1-methyl-piperidin-4-ylamino)-pyrimidin-4-yloxy]-benzamide]	99.6
COc1c(NC(=O)c2ccc(C)c(Oc3cc(N4CC[C@@H](N(C)C)C4)ncn3)c2)cc(C(C)(C)C)cc1NS(C)(=O)=O [4(12), N-(5-tert-butyl-3-methanesulphonylamino-2-methoxy-phenyl)-3-[6-((R)-3-dimethylamino-pyrrolidin-1-yl)-pyrimidin-4-yloxy]-4-methyl-benzamide]	95.8
COc1ccc(C(=O)Nc2cc(C(C)(C)C)cc(NS(C)(=O)=O)c2OC)cc1Oc1ccnc(N2CCNCC2)n1 [5(8), N-(5-tert-butyl-3-methanesulphonylamino-2-methoxy-phenyl)-4-methoxy-3-(2-piperazin-1-yl-pyrimidin-4-yloxy)-benzamide]	98.9
COc1c(NC(=O)c2ccc(Cl)c(Oc3cc(CN4CCNCC4)ncn3)c2)cc(C(C)(C)C)cc1NS(C)(=O)=O [5(32), N-(5-tert-butyl-3-methanesulphonylamino-2-methoxy-phenyl)-4-chloro-3-(6-piperazin-1-ylmethyl-pyrimidin-4-yloxy)-benzamide]	97.9
COc1c(NC(=O)c2ccc(C)c(Oc3ccnc(N4CC[C@@H](N(C)C)C4)n3)c2)cc(C(C)(C)C)cc1NS(C)(=O)=O [4(6), (R)-N-(5-tert-butyl-3-methanesulphonylamino-2-methoxy-phenyl)-3-[2-(3-dimethylamino-pyrrolidin-1-yl)-pyrimidin-4-yloxy]-4-methyl-benzamide]	98
COc1c(NC(=O)c2cc(F)c(C)c(Oc3ccnc(N4CCNCC4)n3)c2)cc(C(C)(C)C)cc1NS(C)(=O)=O [5(13), N-(5-tert-butyl-3-methanesulphonylamino-2-methoxy-phenyl)-3-fluoro-4-methyl-5-(2-piperazin-1-yl-pyrimidin-4-yloxy)-benzamide]	98.2
COc1c(NC(=O)c2ccc(C)c(Oc3cc(N4CCCC4)ncn3)c2)cc(C(C)(C)C)cc1NS(C)(=O)=O [4(4), N-(5-tert-butyl-3-methanesulphonylamino-2-methoxy-phenyl)-4-methyl-3-(6-pyrrolidin-1-yl-pyrimidin-4-yloxy)-benzamide]	97.5
COc1c(NC(=O)c2ccc(F)c(Oc3ccnc(N4CCNCC4)n3)c2)cc(C(C)(C)C)cc1NS(C)(=O)=O [5(10), N-(5-tert-butyl-3-methanesulphonylamino-2-methoxy-phenyl)-4-fluoro-3-(2-piperazin-1-yl-pyrimidin-4-yloxy)-benzamide x trifluoroacetic acid]	94.6
COc1c(NC(=O)c2ccc(C)c(Oc3ccnc(NC4CCNC4)n3)c2)cc(C(C)(C)C)cc1NS(C)(=O)=O (stereo not drawn) [5(23), N-(5-tert-butyl-3-methanesulphonylamino-2-methoxy-phenyl)-4-methyl-3-[2-(pyrrolidin-3-ylamino)-pyrimidin-4-yloxy]-benzamide]	98.3

The next lines start with the values.

inhibition at 1 µM [%]	SMILES
98.8	COc1c(NC(=O)c2cc(F)c(C)c(Oc3ccnc(CN4CCN(C)CC4)n3)c2)cc(C(C)(C)C)cc1NS(C)(=O)=O [7(3), N-(5-tert-butyl-3-methanesulphonylamino-2-methoxy-phenyl)-3-fluoro-4-methyl-5-[2-(4-methyl-piperazin-1-ylmethyl)-pyrimidin-4-yloxy]-benzamide]
98.1	CNc1nccc(Oc2cc(C(=O)Nc3cc(C(C)(C)C)cc(NS(C)(=O)=O)c3OC)ccc2C)n1 [Example 3, N-(5-tert-butyl-3-methanesulphonylamino-2-methoxy-phenyl)-4-methyl-3-(2-methylamino-pyrimidin-4-yloxy)-benzamide]
97.7	COc1c(NC(=O)c2ccc(C)c(Oc3ccnc(NCCN4CCCC4)n3)c2)cc(C(C)(C)C)cc1NS(C)(=O)=O [Example 4, N-(5-tert-butyl-3-methanesulphonylamino-2-methoxy-phenyl)-4-methyl-3-[2-(2-pyrrolidin-1-yl-ethylamino)-pyrimidin-4-yloxy]-benzamide]
91.1	CNCc1cc(Oc2cc(C(=O)Nc3cc(C(C)(C)C)cc(NS(C)(=O)=O)c3OC)ccc2C)ccn1 [8(14), N-(5-tert-butyl-3-methanesulphonylamino-2-methoxy-phenyl)-4-methyl-3-(2-methylaminomethyl-pyridin-4-yloxy)-benzamide]
95	COc1c(NC(=O)c2ccc(C)c(Oc3cc(CN4CCOCC4)ncn3)c2)cc(C(C)(C)C)cc1NS(C)(=O)=O [Example 8, N-(5-tert-butyl-3-methanesulphonylamino-2-methoxy-phenyl)-4-methyl-3-(6-morpholin-4-ylmethyl-pyrimidin-4-yloxy)-benzamide]
95.1	COc1c(NC(=O)CC(C)C)cc(C(C)(C)C)cc1NC(=O)c1ccc(C)c(Oc2ccnc(CC3CCNCC3)c2)c1 [11(4), N-[5-tert-butyl-2-methoxy-3-(3-methyl-butyrylamino)-phenyl]-4-methyl-3-(2-piperidin-4-ylmethyl-pyridin-4-yloxy)-benzamide]
99.1	COc1c(NC(=O)c2ccc(Cl)c(Oc3ccnc(CN4CCNCC4)c3)c2)cc(C(C)(C)C)cc1NS(C)(=O)=O [5(34), N-(5-tert-butyl-3-methanesulphonylamino-2-methoxy-phenyl)-4-chloro-3-(2-piperazin-1-ylmethyl-pyridin-4-yloxy)-benzamide]
82.6	COc1c(NC(=O)c2ccc(Cl)c(Oc3ccnc(CN(C)CCN(C)C)n3)c2)cc(C(C)(C)C)cc1NS(C)(=O)=O [8(36), N-(5-tert-butyl-3-methanesulphonylamino-2-methoxy-phenyl)-4-chloro-3-(2-{[(2-dimethylamino-ethyl)-methyl-amino]-methyl}-pyrimidin-4-yloxy)-benzamide]
95.6	CNC(=O)c1cc(Oc2cc(C(=O)Nc3cc(C(C)(C)C)cc(NS(C)(=O)=O)c3OC)ccc2C)ncn1 [Example 7, 6-[5-(5-tert-butyl-3-methanesulphonylamino-2-methoxy-phenylaminocarbonyl)-2-methyl-phenoxy]-pyrimidin-4-carboxylic acid-methylamide]
92.6	COc1c(NC(=O)c2ccc(Cl)c(Oc3cc(CN(C)CCN(C)C)ncn3)c2)cc(C(C)(C)C)cc1NS(C)(=O)=O [8(32), N-(5-tert-butyl-3-methanesulphonylamino-2-methoxy-phenyl)-4-chloro-3-(6-{[(2-dimethylamino-ethyl)-methyl-amino]-methyl}-pyrimidin-4-yloxy)-benzamide]
93.2	Cc1ccc(C(=O)Nc2cc(C(C)(C)C)cc(NS(C)(=O)=O)c2OC(C)C)cc1Oc1ccnc(CC2CCNCC2)c1 [5(44), N-(5-tert-butyl-2-isopropoxy-3-methanesulphonylamino-phenyl)-4-methyl-3-(2-piperidin-4-ylmethyl-pyridin-4-yloxy)-benzamide]

— US8946438B2, “Benzamides, production thereof, and use thereof as medicaments” (Boehringer Ingelheim International GmbH, priority 2008, dated 2015)
